The test has as its target T1, hCRTH2 (Homo sapiens, UniProt Q9Y5Y4).
T1 construct: expressed in transfected cells; host or cells: HEK (human embryonic kidney) cells expressing hCRTH2; membrane preparation
T1 sequence (Q9Y5Y4 1-395): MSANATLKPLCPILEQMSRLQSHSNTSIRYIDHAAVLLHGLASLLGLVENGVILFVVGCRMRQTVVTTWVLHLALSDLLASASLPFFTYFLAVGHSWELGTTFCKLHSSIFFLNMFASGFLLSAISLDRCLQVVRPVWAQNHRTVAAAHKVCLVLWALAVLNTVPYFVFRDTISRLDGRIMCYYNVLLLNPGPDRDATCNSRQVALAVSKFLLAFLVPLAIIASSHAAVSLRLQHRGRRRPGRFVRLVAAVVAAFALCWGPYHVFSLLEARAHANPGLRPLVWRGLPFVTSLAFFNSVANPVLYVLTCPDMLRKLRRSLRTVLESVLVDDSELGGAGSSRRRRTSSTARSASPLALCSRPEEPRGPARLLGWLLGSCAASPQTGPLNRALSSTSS
The test is described as follows: Radioligand binding assay ([3H]PGD2 competition, HEK-hCRTH2 membranes). A digest of the protocol:
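Filter-bound radioactivity was counted by scintillation after 60 min incubations at room temperature. Membranes (8-20 μg) from HEK cells expressing hCRTH2 competed test ligands against 3.0 nM [3H]PGD2 in Tris-HCl pH 7.4 buffer with EDTA and 2 mM MnCl2; 10 μM PGD2 set non-specific binding.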

One may read the Ki as the dissociation constant of the complex between target and ligand, obtained from inhibition or displacement. A lower Ki goes with tighter binding. With `C[C@@H](CCc1nc2cc(C(=O)N3CC[C@@H](c4ccccc4)C3)ccc2nc1-c1ccccc1)CC(=O)O` [compound 291, (S)-3-methyl-5-(3-phenyl-7-((S)-3-phenylpyrrolidine-1-carbonyl)quinoxalin-2-yl)pentanoic acid], the Ki ([3H]PGD2 competition, Table B) is 2.1 to 20 nM.
For `C[C@@H](CCc1nc2cc(C(=O)N(C)Cc3ccc(F)cc3)ccc2nc1-c1ccccc1)CC(=O)O` [compound 292], the Ki is, setting by setting: ([3H]PGD2 binding, values in text) 39.2 nM; ([3H]PGD2 competition, Table B) 20.1 to 200 nM.
On to `C[C@@H](CCc1nc2cc(C(=O)N[C@@H]3CCCc4ccccc43)ccc2nc1-c1ccccc1)CC(=O)O` [compound 293, (S)-3-methyl-S-(3-phenyl-7-(((R)-1,2,3,4-tetrahydronaphthalen-1-yl)carbamoyl)quinoxalin-2-yl)pentanoic acid], for which, under “[3H]PGD2 competition, Table B”, the inhibitory constant (Ki) was 2.1 to 20 nM.
Same read-out and setting: as for `O=C(O)CCCCc1nc2cc(C(=O)NC3CCCOc4ccccc43)ccc2nc1-c1ccccc1` (centres unmarked) [compound 294, 5-(3-phenyl-7-((2,3,4,5-tetrahydrobenzo[b]oxepin-5-yl)carbamoyl)quinoxalin-2-yl)pentanoic acid], the figure is 2.1 to 20 nM.
The same measure, in the same setting: as for `CC1(C)CC(NC(=O)c2ccc3nc(-c4ccccc4)c(CCCCC(=O)O)nc3c2)c2ccccc2O1` (centres unmarked) [compound 295, 5-(7((2,2-dimethylchroman-4-yl)carbamoyl)-3-phenylquinoxalin-2-yl)pentanoic acid], the figure is 2.1 to 20 nM.
On the same count and under the same terms, as for `CC1(C)CCC(NC(=O)c2ccc3nc(-c4ccccc4)c(CCCCC(=O)O)nc3c2)c2ccccc21` (centres unmarked) [compound 296, 5-(7-((4,4-dimethyl-1,2,3,4-tetrahydronaphthalen-1-yl)carbamoyl)-3-phenylquinoxalin-2-yl)pentanoic acid], the figure is 2.1 to 20 nM.
Compound `O=C(O)CCCCc1nc2cc(C(=O)N3CCC4(CCCc5ccccc54)C3)ccc2nc1-c1ccccc1` (centres unmarked) [compound 297, 5-(7-(3,4-dihydro-2H-spiro[naphthalene-1,3′-pyrrolidin]-1′-ylcarbonyl)-3-phenylquinoxalin-2-yl)pentanoic acid] gave a Ki ([3H]PGD2 competition, Table B) of 2.1 to 20 nM.
As for `O=C(O)CCCCc1nc2cc(C(=O)N3CCC4(CC3)CNC(=O)c3ccccc34)ccc2nc1-c1ccccc1` [compound 298, 5-(7-(i-oxo-2,3-dihydro-1H-spiro[isoquinoline-4,4′-piperidin]-1′-ylcarbonyl)-3-phenylquinoxalin-2-yl)pentanoic acid], the Ki ([3H]PGD2 competition, Table B) was 2.1 to 20 nM.
Still for that read-out and setting: as for `O=C(O)CCCCc1nc2cc(C(=O)N3CCC4(CC3)NC(=O)Cc3ccccc34)ccc2nc1-c1ccccc1` [compound 299, 5-(7-(3-oxo-3,4-dihydro-2H-spiro[isoquinoline-1,4′-piperidin]-1′-ylcarbonyl)-3-phenylquinoxalin-2-yl)pentanoic acid], the figure is 2.1 to 20 nM; as for `O=C(O)CCCCc1nc2cc(C(=O)N3CCC4(CC3)Cc3ccccc3C(=O)N4)ccc2nc1-c1ccccc1` [compound 300, 5-(7-(1-oxo-2,4-dihydro-1H-spiro[isoquinoline-3,4′-piperidin]-1′-ylcarbonyl)-3-phenylquinoxalin-2-yl)pentanoic acid], 2.1 to 20 nM; as for `O=C(O)CCCCc1nc2cc(C(=O)N[C@@H]3CCSc4ccccc43)ccc2nc1-c1ccccc1` [compound 301, (R)-5-(3-phenyl-7-(thiochroman-4-ylcarbamoyl)quinoxalin-2-yl)pentanoic acid], 2.1 to 20 nM.
The same measure, in the same setting: as for `O=C(O)CCCCc1nc2cc(C(=O)N3CCN(Cc4ccccc4)CC3)ccc2nc1-c1ccccc1` [compound 302, 5-(7-(4-benzylpiperazine-1-carbonyl)-3-phenylquinoxalin-2-yl)pentanoic acid], the figure is 2.1 to 20 nM.
On the same count and under the same terms, as for `N#Cc1cccnc1N1CCN(C(=O)c2ccc3nc(-c4ccccc4)c(CCCCC(=O)O)nc3c2)CC1` [compound 303, 5-(7-(4-(3-cyanopyridin-2-yl)piperazine-1-carbonyl)-3-phenylquinoxalin-2-yl)pentanoic acid], the figure is 2.1 to 20 nM.
Where the note is “[3H]PGD2 competition, Table B”, `O=C(O)CCCCc1nc2cc(C(=O)N3CCN(c4c(Cl)cncc4Cl)CC3)ccc2nc1-c1ccccc1` [compound 304, 5-(7-(4-(3,5-dichloropyridin-4-yl)piperazine-1-carbonyl)-3-phenylquinoxalin-2-yl)pentanoic acid] had a Ki of 2.1 to 20 nM.
Same read-out and setting: as for `O=C(O)CCCCc1nc2cc(C(=O)N3CCN(c4ccccc4C(F)(F)F)CC3)ccc2nc1-c1ccccc1` [compound 305, 5-(3-phenyl-7-(4-(2-(trifluoromethyl)phenyl)piperazine-1-carbonyl)quinoxalin-2-yl)pentanoic acid], the figure is 2.1 to 20 nM; as for `O=C(O)CCCCc1nc2cc(C(=O)N3CCN(c4nccs4)CC3)ccc2nc1-c1ccccc1` [compound 306, 5-(3-phenyl-7-(4-(thiazol-2-yl)piperazine-1-carbonyl)quinoxalin-2-yl)pentanoic acid], 20.1 to 200 nM.
Still for that read-out and setting: as for `O=C(O)CCCCc1nc2cc(C(=O)N3Cc4ccccc4C3)ccc2nc1-c1ccccc1` [compound 307, 5-(7-(isoindoline-2-carbonyl)-3-phenylquinoxalin-2-yl)pentanoic acid], the figure is 20.1 to 200 nM; as for `O=C(O)CCCCc1nc2cc(C(=O)N3CCN(c4ccccc4Cl)CC3)ccc2nc1-c1ccccc1` [compound 308, 5-(7-(4-(2-chlorophenyl)piperazine-1-carbonyl)-3-phenylquinoxalin-2-yl)pentanoic acid], 2.1 to 20 nM.
In turn, `O=C(O)CCCCc1nc2cc(C(=O)N3CCN(c4cccc(C(F)(F)F)c4)CC3)ccc2nc1-c1ccccc1` [compound 309, 5-(3-phenyl-7-(4-(3-(trifluoromethyl)phenyl)piperazine-l-carbonyl)quinoxalin-2-yl)pentanoic acid] returned a Ki ([3H]PGD2 competition, Table B) of 2.1 to 20 nM.
Turning to `O=C(O)CCCCc1nc2cc(C(=O)N[C@H]3CCOc4cc(F)ccc43)ccc2nc1-c1ccccc1` [compound 310, (S)-5-(7((7-fluorochroman-4-yl)carbamoyl)-3-phenylquinoxalin-2-yl)pentanoic acid], the Ki ([3H]PGD2 competition, Table B) lay in the range of 2.1 to 20 nM.
On the same count and under the same terms, as for `O=C(O)CCCCc1nc2cc(C(=O)NC3CCCc4cc(OCc5ccccc5)ccc43)ccc2nc1-c1ccc(Cl)cc1` (centres unmarked) [compound 311, 5-(7-((6-(benzyloxy)-1,2,3,4-tetrahydronaphthalen-1-yl)carbamoyl)-3-(4-chlorophenyl)quinoxalin-2-yl)pentanoic acid], the figure is 2.1 to 20 nM; as for `COc1ccc2c(c1)CCCC2NC(=O)c1ccc2nc(-c3ccc(Cl)cc3)c(CCCCC(=O)O)nc2c1` (centres unmarked) [compound 312, 5-(3-(4-chlorophenyl)-7((6-methoxy-1,2,3,4-tetrahydronaphthalen-1-yl)carbamoyl)quinoxalin-2-yl)pentanoic acid], 2.1 to 20 nM; as for `O=C(O)CCCCc1nc2cc(C(=O)N[C@H]3COc4cc(F)ccc43)ccc2nc1-c1ccc(Cl)cc1` [compound 313, (R)-5-(3-(4-chlorophenyl)-7-((6-fluoro-2,3-dihydrobenzofuran-3-yl)carbamoyl)quinoxalin-2-yl)pentanoic acid], 2.1 to 20 nM.
Same read-out and setting: as for `O=C(O)CCCCc1nc2cc(C(=O)N[C@@H]3COc4cc(F)ccc43)ccc2nc1-c1ccc(Cl)cc1` [compound 314, (S)-5-(3-(4-chlorophenyl)-7-((6-fluoro-2,3-dihydrobenzofuran-3-yl)carbamoyl)quinoxalin-2-yl)pentanoic acid], the figure is 2.1 to 20 nM; as for `CN1C(=O)CC(NC(=O)c2ccc3nc(-c4ccc(Cl)cc4)c(CCCCC(=O)O)nc3c2)c2ccccc21` (centres unmarked) [compound 315, 5-(3-(4-chlorophenyl)-7-((1-methyl-2-oxo-1,2,3,4-tetrahydroquinolin-4-yl)carbamoyl)quinoxalin-2-yl)pentanoic acid], 2.1 to 20 nM; as for `O=C(O)CCCCc1nc2cc(C(=O)N3CCC(N4Cc5ccccc5C4=O)CC3)ccc2nc1-c1ccc(Cl)cc1` [compound 316, 5-(3-(4-chlorophenyl)-7-(4-(1-oxoisoindolin-2-yl)piperidine-1-carbonyl)quinoxalin-2-yl)pentanoic acid], 2.1 to 20 nM.
Still for that read-out and setting: as for `O=C(O)CCCCc1nc2cc(C(=O)NCC3(c4ccc(OC(F)(F)F)cc4)CC3)ccc2nc1-c1ccc(Cl)cc1` [compound 317, 5-(3-(4-chlorophenyl)-7-(((1-(4-(trifluoromethoxy)phenyl)cyclopropyl)methyl)carbamoyl)quinoxalin-2-yl)pentanoic acid], the figure is 2.1 to 20 nM.
As for `O=C(O)CCCCc1nc2cc(C(=O)NCC3(c4ccc(F)cc4)CC3)ccc2nc1-c1ccc(Cl)cc1` [compound 318, 5-(3-(4-chlorophenyl)-7-(((1-(4-fluorophenyl)cyclopropyl)methyl)carbamoyl)quinoxalin-2-yl)pentanoic acid], for the setting “[3H]PGD2 competition, Table B”, the Ki was 2.1 to 20 nM.
The same measure, in the same setting: as for `O=C(O)CCCCc1nc2cc(C(=O)NC3NC(=O)c4ccccc43)ccc2nc1-c1ccc(Cl)cc1` (centres unmarked) [compound 319, 5-(3-(4-chlorophenyl)-7((3-oxoisoindolin-1-yl)carbamoyl)quinoxalin-2-yl)pentanoic acid], the figure is 2.1 to 20 nM; as for `O=C(O)CCCCc1nc2cc(C(=O)N[C@@H]3CCS(=O)(=O)c4ccccc43)ccc2nc1-c1ccc(Cl)cc1` [compound 320, (R)-5-(3-(4-chlorophenyl)-7-((1,1-dioxidothiochroman-4-yl)carbamoyl)quinoxalin-2-yl)pentanoic acid], 2.1 to 20 nM; as for `C[C@H](NC(=O)c1ccc2nc(-c3ccc(Cl)cc3)c(CCCCC(=O)O)nc2c1)c1cncc2ccccc12` [compound 321, (S)-5-(3-(4-chlorophenyl)-7-((1-(isoquinolin-4-yl)ethyl)carbamoyl)quinoxalin-2-yl)pentanoic acid], 2.1 to 20 nM.

The values are drawn from US9469615B2, “Quinoxalines and AZA-quinoxalines as CRTH2 receptor modulators” (Merck Sharp & Dohme Corp., priority 2010, dated 2016).
